The results in this text go back to a melting point compilation (Tetko et al.; mined from patent text by program, amines drawn as free bases though some values may be those of a salt).

Usually melting point stands for the temperature of the solid-liquid transition.

Bounds are passed on as bounds.

For the compound `CCOC(=O)/C=C(C)/C=C/C=C(\C)C1=Cc2cc(C34CC5CC(CC(C5)C3)C4)ccc2OC1`, the melting point fell in the range of 178 to 179 °C. Next, `CCCOc1ccc(S(=O)(=O)CCC)cc1C(N)=O`: 168 to 170 °C. Next, `CCOC(=O)c1c(C)[nH]c2ccc(OC[C@@H](O)CN=[N+]=[N-])cc12`: 75 to 77 °C. Next, `OCc1ccc(Cn2nc(OCc3ccccc3)c3ccccc32)o1`: 80 to 82 °C; `COc1nc(NCCNC(C)C)nc(OC)c1[N+](=O)[O-]`: 135 °C; `O=C(NCCO)c1cnc(-c2ccccc2)s1`: 149 to 152 °C. The compound `COc1nc(SC)nc(Cl)c1C(=O)O` had a melting point of 179 to 181 °C. In the case of `O=C(O)Cc1noc2cc(F)ccc12`, the melting point was 132 to 133 °C. Next, `CC(=O)NC1C(O[Si](C)(C)C(C)(C)C)C=C(C(=O)O)OC1C(OCC(=O)O)C1COC(C)(C)O1` (stereo not drawn): 130 °C; `COc1ccc(C(=O)CN(Cc2ccccc2)Cc2ccccc2)cc1C(N)=O`: 113 to 114 °C. In the case of `CS(=O)(=O)On1nnc2ccccc21`, the melting point lay within 88 to 90 °C. In the case of `FC(F)(F)COc1cc(-c2cc(C(F)(F)F)n3ncc(-c4ccncc4)c3n2)ccc1C(F)(F)F`, the melting point amounted to 251 °C. With `CC(CCC(=O)O)C1CCC2C3C(O)CC4CC(O[Si](C)(C)C(C)(C)C)CCC4(C)C3CC(O)C12C` (stereo not drawn), the melting point was determined as 146 °C. The result for `CC(=O)Oc1ccccc1Cn1nnnc1-c1cccc(Cl)c1Cl` reads 195 to 196 °C; that for `O=C(NC1CCCc2ccccc21)c1ccc2cnccc2n1` (stereo not drawn), 164 to 165 °C. The result for `COc1ccc(S(N)(=O)=O)cc1C(=O)NC1CCN(CC2CC2)C1` (stereo not drawn) reads 150 °C.

For `C[C@@H](c1ccc(F)cc1)N1CCN(c2cc(Nc3ccc4cccnc4c3)ncn2)CC1`, the melting point is 206 to 207 °C.

Take `Cn1c(-c2ccccc2)c(-c2ccc(C(=O)O)cc2)c2ccccc21`: the melting point lay in the range of 165 to 166 °C. Next, `CCOC(=O)Nc1cc(Oc2ncccn2)c(Br)cc1F`: 178 °C; `c1ccc(C(OC2CCN(CCCCNc3ccc4nncn4n3)CC2)c2ccccc2)cc1`: 145 to 146 °C; `CC(C)(C)C1Cc2cc(OCC(=O)O)c(Cl)c(Cl)c2C1=O` (stereo not drawn): 155 to 175 °C. In the case of `NS(=O)(=O)c1nc(-c2cccc(Cl)c2)ns1`, the melting point lay in the range of 182 to 184 °C.

In turn, `Cc1ccc2sc(S(N)(=O)=O)cc2c1` came in with a melting point of 212 to 213 °C. The result for `CCCCOc1ccc(S(=O)(=O)C2(C(=O)O)CCN(C)CC2)cc1` reads 118 °C; that for `O=C(O)C1CC(O)CN1C(=O)c1ccc2c(c1)OCO2` (stereo not drawn), 230 °C; that for `Oc1ccc2sc3ccccc3c2c1`, 152 to 155 °C. On to `CS(=O)(=O)c1nnc(-c2ccc3occ(-c4ccc(OC(F)(F)F)cc4)c3c2)o1`, for which the melting point was in the range of 196 to 197 °C. Next, `CC1(c2nn(-c3ccc(N)cc3Cl)c(=O)o2)CC1`: 195 to 196 °C; `Cc1nc(N)[nH]c(=O)c1N1CCN(c2ccc(CN)cc2)CC1`: 281 to 282 °C. Next, `c1ccc(Oc2ccc(NC3=NN(c4ccccc4)CC3)cc2)cc1`: 114 to 116 °C; `COc1ccnc(-n2cnc3ccccc32)n1`: 114 to 116 °C. The result for `CON1C(C)(C)CC(OC(=O)c2ccc(C(=O)OC3CC(C)(C)N(OC)C(C)(C)C3)cc2)CC1(C)C` reads 179 to 181 °C. In the case of `CC12CCC(=O)C(N=[N+]=[N-])=C1CCC1C2CCC2(C)C(OC3CC3)CCC12` (stereo not drawn), the melting point was in the range of 104 to 106 °C. The result for `CN1CCn2c1nc(C(=O)NCc1ccc(F)cc1)c(O)c2=O` reads 212 °C; that for `Cn1c(=O)[nH]c(=O)c2c1ncn2Cc1noc(Cc2ccccc2)n1`, 188 to 190 °C. `NN1C=NNC1=Cc1ccccc1O`: the melting point is 210 to 212 °C.

In turn, `COc1cc(F)ccc1-c1cncc(OC2SCC(O)C(O)C2O)c1` (stereo not drawn) came in with a melting point of 218 to 228 °C. The result for `O=C(NCC1CCN(C[C@H]2COc3cccc(Cl)c3O2)CC1)c1cccnc1` reads 52 to 54 °C; that for `Cn1c(C(F)(F)F)cc(=O)n(-c2cc(C=O)c(Cl)cc2Cl)c1=O`, 117 to 120 °C.

`COc1cc2ccc(-c3ccccc3)cc2cc1SC`: the melting point was 124 to 125 °C. The result for `COc1cc(CN(C)Cc2ccccc2)ccc1NC(=O)Nc1cnc(C)cn1` reads 142 to 143 °C; that for `COC(=O)c1cc(C=NO)cc([N+](=O)[O-])c1`, 144 to 145 °C. `Cn1nc(-c2cc3c(cc2F)OCC(=O)N3)c(Cl)c1C(F)(F)F` showed a melting point of 207 °C. Next, `O=C(C=Cc1ccc(Cl)cc1)N1CCN(c2ccc(OC[C@H]3CO[C@](Cn4cncn4)(c4ccc(Cl)cc4Cl)O3)cc2)CC1` (relative stereo): 185 °C; `NC(=O)COc1ccccc1[N+](=O)[O-]`: 190 to 191 °C; `Oc1c(C2=CCCCC2)ccc2ccccc12`: 82 to 83 °C. Next, `CCCN1CCN(Cc2ccc3c(c2O)OCO3)CC1`: 115 to 117 °C; `O=C(O)CCn1c(=O)c(=O)[nH]c2cc([N+](=O)[O-])ccc21`: 148 to 156 °C.

For the compound `C=CCCC(=O)N1CCc2nnc(NN)cc2C1`, the melting point lay in the range of 132 to 134 °C. Compound `CC(c1ccccc1)N(C=O)C(C#N)C=O` (single isomer, unassigned; (+)) had a melting point of 245 °C. Next, `COc1ccc2nc3[nH]cnc(=O)c3cc2c1`: above 300 °C. The result for `COc1cc(Nc2ncc(C#N)c(-c3ccccc3)n2)cc(OC)c1OC` reads 98 °C.

Consider `O=C1CCc2c(Br)cc(F)cc21`, for which the melting point was in the range of 129 to 131 °C. Next, `CN1N=C(c2ccc(F)cc2)c2ccc(C#N)cc2CS1(=O)=O`: 284 to 285 °C; `COc1ccc(C2CCC(=O)CC2=O)cc1` (stereo not drawn): 150 to 151 °C; `C[C@@H](c1ccc(Br)cc1)N(CC[C@](O)(CC(C)(C)O)c1ccccc1)C(=O)Oc1ccccc1`: 129 to 131 °C. The result for `CCCc1ccc(-n2cnc(-c3ccc(C#N)cc3)c2)cc1` reads 133 °C; that for `Cc1cn(-c2ccc(N)cc2C(F)(F)F)c(C)n1`, 163 to 164 °C; that for `Cc1ccc(C#N)cc1Cl`, 46.5 to 47.5 °C.

`CC(C)(C)OC(=O)NC1CCCCCC=CC2CC2(C(=O)NS(=O)(=O)C2CC2)NC(=O)C2CC(OC(=O)c3ccc(-n4cccn4)cc3)CN2C1=O` (stereo not drawn) registered a melting point of 167 to 169 °C.

`CC(C)(O)CC1c2ccccc2C(=O)N1CC(=O)O` (stereo not drawn) displayed a melting point of 198 to 199 °C.

The compound `CC(=O)Nc1ccccc1Oc1cc2c(=O)ccoc2cc1NS(C)(=O)=O` yielded a melting point of 130 to 132 °C. Next, `CN1C(C)(C)CC2(CC1(C)C)NC(=O)N(CC(O)COCC(O)COCC(O)CN1C(=O)NC3(CC(C)(C)N(C)C(C)(C)C3)C1=O)C2=O` (stereo not drawn): 175 to 177 °C; `CCCCc1ccc(-c2ccc(CCc3ccc(C(F)(F)F)cc3)cc2)cc1`: 85 °C; `CN(Cc1sc2c(=O)c(C(=O)NCc3ccc(Cl)cc3)cn(C)c2c1COCC[Si](C)(C)C)CC(O)c1ccc(C#N)s1` (stereo not drawn): 152 to 154 °C. The result for `CCOC(=O)c1cn(CC)c2c(F)c(C(=O)C=CN(C)C)c(F)cc2c1=O` reads 175 to 177 °C; that for `COC(c1cccs1)C1C(c2ccccc2)CC(=O)N1C` (stereo not drawn), 101 to 102 °C. The result for `COc1cc(CSc2ccc(N)nn2)cc(OC)c1OC` reads 143 to 146 °C; that for `CCCC(=O)c1cc2c(=O)c(C(=O)OCC)cn(CC)c2cc1C`, 145 to 146 °C. `COc1ccc(-c2nc(C)nn2-c2ccccc2S(N)(=O)=O)cc1OC` gave a melting point of 176 to 178 °C. Next, `CCN(CC)CCOc1ccc(Nc2ncc3c(n2)N(c2ccccc2)C(=O)N(c2c(Cl)cccc2Cl)C3)cc1`: 162 to 163 °C. Next, `CC(Nn1cncn1)(c1ccc(F)cc1)c1ccc(F)cc1`: 114 to 119 °C; `O=[N+]([O-])c1ccc(Oc2ccc([N+](=O)[O-])cc2-c2ccc(C(F)(F)F)cc2C(F)(F)F)c(-c2ccc(C(F)(F)F)cc2C(F)(F)F)c1`: 72 to 73 °C; `COC(=O)c1cccc2c1-c1ccc3c(c1C(c1ccccc1)O2)C(C)=CC(C)(C)N3` (stereo not drawn): 150 to 152 °C. On to `CCN(CC)c1ccc(NC(=O)c2ccc(C)c(Nc3nccc(-c4cccnc4)n3)c2)cc1C(F)(F)F`, for which the melting point fell in the range of 128 to 131 °C.

In turn, `CC(C)(C)c1ccc(S(=O)(=O)N2c3ccccc3C[C@H]2C(=O)NCc2ccc(C(=O)O)cc2)cc1` had a melting point of 105 to 120 °C. `COC(=O)Cc1ccc(OCCNC(=O)C2Cc3ccccc3N2S(=O)(=O)c2ccc(-c3cc(C)ccc3Cl)cc2)cc1` (stereo not drawn): the melting point fell in the range of 50 to 53 °C.

For the compound `Cc1oc(C)c(C(=O)OC2CC(C)(C)N(C)C(C)(C)C2)c1C`, the melting point lay in the range of 55 to 56 °C. The result for `Cc1ccc(OC2=C(Oc3ccc(C)c(C)c3)C(F)(F)C(F)(F)C2(F)F)cc1C` reads 65 to 67 °C; that for `CC1(C)C2CC[C@]1(C)C(=O)C(C(=O)Nc1ccc(F)c(Cl)c1)C2=O` (stereo partly drawn), 87 to 89 °C. As for `CC(=O)O[C@H]1CCNC1=O`, the melting point fell in the range of 85.5 to 87 °C. The result for `CCc1cc(O)c2cnn(C(C)=O)c2c1` reads 161 to 163 °C. Next, `Cc1ccc(-c2c(Cl)ncn2-c2ccc(S(C)(=O)=O)cc2)cc1F`: 176 °C; `CCCNC(=O)N1Cc2cccn2-c2ccsc2C1=O`: 120 °C. Next, `COC(=O)NN=C(C)c1c[nH]c(-c2ccccc2)n1`: 226 to 227 °C; `CCCCCCCCCCC#CC#CCCCCCCCCC(=O)OC(=O)CCCCCCCCC#CC#CCCCCCCCCCC`: 58 to 59.5 °C; `COc1cccc(S(=O)(=O)N2CCCC2=O)c1`: 108 to 109 °C.

Consider `CC(C)(C)c1cc(-c2cncn2CCCCl)cc(C(C)(C)C)c1O`, for which the melting point fell in the range of 178 to 179 °C.
